# Source: patent publication US9630977B2, “Cephalosporin derivatives and pharmaceutical compositions thereof” (Legochem Biosciences, Inc., priority 2011, dated 2017)
# Test system: A. baumannii 49
# Assay: In vitro antibacterial activity test (broth microdilution)
# Format: cell-based
# Settings: Acinetobacter baumannii; A. baumannii 49; read-out: MIC90
# Summary of the method: (§1)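 Stocks at 10,240 ug/mL in DMSO, serially diluted in DMSO then water to final 0.0626–128 ug/mL (2.5% V/V DMSO). CLSI broth microdilution; MIC90, ug/mL.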
row,Compound,MIC90 [µg/mL]
1,C[C@H](O/N=C(\C(=O)N[C@@H]1C(=O)N2C(C(=O)[O-])=C(C[n+]3cnc(N)c(NCCNC(=O)c4cc(=O)c(O)c[nH]4)c3)CSC12)c1nc(N)sc1Cl)C(=O)O (stereo partly shown) [Compound 17],4

# Test system: P. aeruginosa 6065Y
# Assay: as above
# Format: cell-based
# Settings: Pseudomonas aeruginosa, read-out: MIC90
# Summary of the method: as §1
row,Compound,MIC90 [µg/mL]
1,C[C@H](O/N=C(\C(=O)N[C@@H]1C(=O)N2C(C(=O)[O-])=C(C[n+]3cnc(N)c(NCCNC(=O)c4cc(=O)c(O)c[nH]4)c3)CSC12)c1nc(N)sc1Cl)C(=O)O (stereo partly shown) [Compound 17],2

# Test system: E. cloacae β19
# Assay: as above
# Format: cell-based
# Settings: Enterobacter cloacae, read-out: MIC90
# Summary of the method: as §1
row,Compound,MIC90 [µg/mL]
1,C[C@H](O/N=C(\C(=O)N[C@@H]1C(=O)N2C(C(=O)[O-])=C(C[n+]3cnc(N)c(NCCNC(=O)c4cc(=O)c(O)c[nH]4)c3)CSC12)c1nc(N)sc1Cl)C(=O)O (stereo partly shown) [Compound 17],2

# Test system: M. catarrhalis 2524
# Assay: as above
# Format: cell-based
# Settings: Moraxella catarrhalis; M. catarrhalis 2524; read-out: MIC90
# Summary of the method: as §1
row,Compound,MIC90 [µg/mL]
1,C[C@H](O/N=C(\C(=O)N[C@@H]1C(=O)N2C(C(=O)[O-])=C(C[n+]3cnc(N)c(NCCNC(=O)c4cc(=O)c(O)c[nH]4)c3)CSC12)c1nc(N)sc1Cl)C(=O)O (stereo partly shown) [Compound 17],0.125

# Test system: K. pneumoniae β9
# Assay: as above
# Format: cell-based
# Settings: Klebsiella pneumoniae, K. pneumoniae β9; read-out: MIC90
# Summary of the method: as §1
row,Compound,MIC90 [µg/mL]
1,C[C@H](O/N=C(\C(=O)N[C@@H]1C(=O)N2C(C(=O)[O-])=C(C[n+]3cnc(N)c(NCCNC(=O)c4cc(=O)c(O)c[nH]4)c3)CSC12)c1nc(N)sc1Cl)C(=O)O (stereo partly shown) [Compound 17],1

# Test system: P. aeruginosa 40
# Assay: as above
# Format: cell-based
# Settings: Pseudomonas aeruginosa, 40, P. aeruginosa 40; read-out: MIC90
# Summary of the method: as §1
row,Compound,MIC90 [µg/mL]
1,C[C@H](O/N=C(\C(=O)N[C@@H]1C(=O)N2C(C(=O)[O-])=C(C[n+]3cnc(N)c(NCCNC(=O)c4cc(=O)c(O)c[nH]4)c3)CSC12)c1nc(N)sc1Cl)C(=O)O (stereo partly shown) [Compound 17],8

# Test system: E. coli AG100
# Assay: as above
# Format: cell-based
# Settings: Escherichia coli, AG100, E. coli AG100; read-out: MIC90
# Summary of the method: as §1
row,Compound,MIC90 [µg/mL]
1,C[C@H](O/N=C(\C(=O)N[C@@H]1C(=O)N2C(C(=O)[O-])=C(C[n+]3cnc(N)c(NCCNC(=O)c4cc(=O)c(O)c[nH]4)c3)CSC12)c1nc(N)sc1Cl)C(=O)O (stereo partly shown) [Compound 17],1

# Test system: P. aeruginosa 37
# Assay: as above
# Format: cell-based
# Settings: Pseudomonas aeruginosa, 37, P. aeruginosa 37; read-out: MIC90
# Summary of the method: as §1
row,Compound,MIC90 [µg/mL]
1,C[C@H](O/N=C(\C(=O)N[C@@H]1C(=O)N2C(C(=O)[O-])=C(C[n+]3cnc(N)c(NCCNC(=O)c4cc(=O)c(O)c[nH]4)c3)CSC12)c1nc(N)sc1Cl)C(=O)O (stereo partly shown) [Compound 17],8

# Test system: K. pneumoniae 2011E
# Assay: as above
# Format: cell-based
# Settings: Klebsiella pneumoniae, 2011E, K. pneumoniae 2011E; read-out: MIC90
# Summary of the method: as §1
row,Compound,MIC90 [µg/mL]
1,C[C@H](O/N=C(\C(=O)N[C@@H]1C(=O)N2C(C(=O)[O-])=C(C[n+]3cnc(N)c(NCCNC(=O)c4cc(=O)c(O)c[nH]4)c3)CSC12)c1nc(N)sc1Cl)C(=O)O (stereo partly shown) [Compound 17],4

# Test system: K. pneumoniae β13
# Assay: as above
# Format: cell-based
# Settings: Klebsiella pneumoniae, K. pneumoniae β13; read-out: MIC90
# Summary of the method: as §1
row,Compound,MIC90 [µg/mL]
1,C[C@H](O/N=C(\C(=O)N[C@@H]1C(=O)N2C(C(=O)[O-])=C(C[n+]3cnc(N)c(NCCNC(=O)c4cc(=O)c(O)c[nH]4)c3)CSC12)c1nc(N)sc1Cl)C(=O)O (stereo partly shown) [Compound 17],1

# Test system: K. pneumoniae β11
# Assay: as above
# Format: cell-based
# Settings: Klebsiella pneumoniae; K. pneumoniae β11; read-out: MIC90
# Summary of the method: as §1
row,Compound,MIC90 [µg/mL]
1,C[C@H](O/N=C(\C(=O)N[C@@H]1C(=O)N2C(C(=O)[O-])=C(C[n+]3cnc(N)c(NCCNC(=O)c4cc(=O)c(O)c[nH]4)c3)CSC12)c1nc(N)sc1Cl)C(=O)O (stereo partly shown) [Compound 17],32

# Test system: A. baumannii 52
# Assay: as above
# Format: cell-based
# Settings: Acinetobacter baumannii; A. baumannii 52; read-out: MIC90
# Summary of the method: as §1
row,Compound,MIC90 [µg/mL]
1,C[C@H](O/N=C(\C(=O)N[C@@H]1C(=O)N2C(C(=O)[O-])=C(C[n+]3cnc(N)c(NCCNC(=O)c4cc(=O)c(O)c[nH]4)c3)CSC12)c1nc(N)sc1Cl)C(=O)O (stereo partly shown) [Compound 17],2

# Test system: P. aeruginosa 1912E
# Assay: as above
# Format: cell-based
# Settings: Pseudomonas aeruginosa, 1912E, read-out: MIC90
# Summary of the method: as §1
row,Compound,MIC90 [µg/mL]
1,C[C@H](O/N=C(\C(=O)N[C@@H]1C(=O)N2C(C(=O)[O-])=C(C[n+]3cnc(N)c(NCCNC(=O)c4cc(=O)c(O)c[nH]4)c3)CSC12)c1nc(N)sc1Cl)C(=O)O (stereo partly shown) [Compound 17],2

# Test system: P. aeruginosa 43
# Assay: as above
# Format: cell-based
# Settings: Pseudomonas aeruginosa; P. aeruginosa 43; read-out: MIC90
# Summary of the method: as §1
row,Compound,MIC90 [µg/mL]
1,C[C@H](O/N=C(\C(=O)N[C@@H]1C(=O)N2C(C(=O)[O-])=C(C[n+]3cnc(N)c(NCCNC(=O)c4cc(=O)c(O)c[nH]4)c3)CSC12)c1nc(N)sc1Cl)C(=O)O (stereo partly shown) [Compound 17],2

# Test system: K. pneumoniae β10
# Assay: as above
# Format: cell-based
# Settings: Klebsiella pneumoniae; K. pneumoniae β10; read-out: MIC90
# Summary of the method: as §1
row,Compound,MIC90 [µg/mL]
1,C[C@H](O/N=C(\C(=O)N[C@@H]1C(=O)N2C(C(=O)[O-])=C(C[n+]3cnc(N)c(NCCNC(=O)c4cc(=O)c(O)c[nH]4)c3)CSC12)c1nc(N)sc1Cl)C(=O)O (stereo partly shown) [Compound 17],4

# Test system: K. pneumoniae β14
# Assay: as above
# Format: cell-based
# Settings: Klebsiella pneumoniae, read-out: MIC90
# Summary of the method: as §1
row,Compound,MIC90 [µg/mL]
1,C[C@H](O/N=C(\C(=O)N[C@@H]1C(=O)N2C(C(=O)[O-])=C(C[n+]3cnc(N)c(NCCNC(=O)c4cc(=O)c(O)c[nH]4)c3)CSC12)c1nc(N)sc1Cl)C(=O)O (stereo partly shown) [Compound 17],32

# Test system: E. coli β4
# Assay: as above
# Format: cell-based
# Settings: Escherichia coli, read-out: MIC90
# Summary of the method: as §1
row,Compound,MIC90 [µg/mL]
1,C[C@H](O/N=C(\C(=O)N[C@@H]1C(=O)N2C(C(=O)[O-])=C(C[n+]3cnc(N)c(NCCNC(=O)c4cc(=O)c(O)c[nH]4)c3)CSC12)c1nc(N)sc1Cl)C(=O)O (stereo partly shown) [Compound 17],4

# Test system: A. calcoaceticus ATCC15473
# Assay: as above
# Format: cell-based
# Settings: Acinetobacter calcoaceticus; A. calcoaceticus ATCC15473; read-out: MIC90
# Summary of the method: as §1
row,Compound,MIC90 [µg/mL]
1,C[C@H](O/N=C(\C(=O)N[C@@H]1C(=O)N2C(C(=O)[O-])=C(C[n+]3cnc(N)c(NCCNC(=O)c4cc(=O)c(O)c[nH]4)c3)CSC12)c1nc(N)sc1Cl)C(=O)O (stereo partly shown) [Compound 17],0.5

# Test system: A. baumannii 46
# Assay: as above
# Format: cell-based
# Settings: Acinetobacter baumannii; A. baumannii 46; read-out: MIC90
# Summary of the method: as §1
row,Compound,MIC90 [µg/mL]
1,C[C@H](O/N=C(\C(=O)N[C@@H]1C(=O)N2C(C(=O)[O-])=C(C[n+]3cnc(N)c(NCCNC(=O)c4cc(=O)c(O)c[nH]4)c3)CSC12)c1nc(N)sc1Cl)C(=O)O (stereo partly shown) [Compound 17],16
